According to PubChem BioAssay (NCI):
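Cultured in 96-well plates, cells were exposed to test compound for 48 hours across five concentrations. GI50 is the concentration that inhibits growth by half. TGI: total growth inhibition.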

Legend:
Experiment in all cases: DTP human tumour cell line panel, 48 h
786-0 renal = system: 786-0 renal
A498 renal = system: A498 renal
A549 NSCLC = system: A549 NSCLC
ACHN renal = system: ACHN renal
CAKI-1 renal = system: CAKI-1 renal
CCRF-CEM leukemia = system: CCRF-CEM leukemia
COLO 205 colon = system: COLO 205 colon
DLD-1 colon = system: DLD-1 colon
DMS 114 small cell lung = system: DMS 114 small cell lung
DMS 273 small cell lung = system: DMS 273 small cell lung
EKVX NSCLC = system: EKVX NSCLC
HCC-2998 colon = system: HCC-2998 colon
HCT-116 colon = system: HCT-116 colon
HCT-15 colon = system: HCT-15 colon
HL-60(TB) leukemia = system: HL-60(TB) leukemia
HOP-18 NSCLC = system: HOP-18 NSCLC
HOP-62 NSCLC = system: HOP-62 NSCLC
HT29 colon = system: HT29 colon
IGROV1 ovarian = system: IGROV1 ovarian
K-562 leukemia = system: K-562 leukemia
KM12 colon = system: KM12 colon
KM20L2 colon = system: KM20L2 colon
LOX IMVI melanoma = system: LOX IMVI melanoma
LXFL 529 NSCLC = system: LXFL 529 NSCLC
M14 melanoma = system: M14 melanoma
M19-MEL melanoma = system: M19-MEL melanoma
MALME-3M melanoma = system: MALME-3M melanoma
MOLT-4 leukemia = system: MOLT-4 leukemia
NCI-H226 lung = system: NCI-H226 lung
NCI-H23 lung = system: NCI-H23 lung
NCI-H460 lung = system: NCI-H460 lung
NCI-H522 lung = system: NCI-H522 lung
OVCAR-3 ovarian = system: OVCAR-3 ovarian
OVCAR-4 ovarian = system: OVCAR-4 ovarian
OVCAR-5 ovarian = system: OVCAR-5 ovarian
OVCAR-8 ovarian = system: OVCAR-8 ovarian
RPMI-8226 leukemia = system: RPMI-8226 leukemia
RXF-631 renal = system: RXF-631 renal
SF-268 CNS = system: SF-268 CNS
SF-295 CNS = system: SF-295 CNS
SF-539 CNS = system: SF-539 CNS
SK-MEL-2 melanoma = system: SK-MEL-2 melanoma
SK-MEL-28 melanoma = system: SK-MEL-28 melanoma
SK-MEL-5 melanoma = system: SK-MEL-5 melanoma
SK-OV-3 ovarian = system: SK-OV-3 ovarian
SN12C renal = system: SN12C renal
SNB-19 CNS = system: SNB-19 CNS
SNB-75 CNS = system: SNB-75 CNS
SNB-78 CNS = system: SNB-78 CNS
SW-620 colon = system: SW-620 colon
TK-10 renal = system: TK-10 renal
UACC-257 melanoma = system: UACC-257 melanoma
UACC-62 melanoma = system: UACC-62 melanoma
UO-31 renal = system: UO-31 renal
XF 498 CNS = system: XF 498 CNS
HOP-92 NSCLC = system: HOP-92 NSCLC
RXF 393 renal = system: RXF 393 renal
U251 CNS = system: U251 CNS

Compound: CCO.CCO.Oc1ccc(Nc2ncns2)cc1.Oc1ccc(Nc2ncns2)cc1.[Ti]
- GI50 (786-0 renal): 49.6 µM
- TGI (786-0 renal): > 100 µM
- GI50 (A498 renal): 28.6 µM
- TGI (A498 renal): 74.9 µM
- GI50 (A549 NSCLC): 43.6 µM
- TGI (A549 NSCLC): > 100 µM
- GI50 (ACHN renal): 33.2 µM
- TGI (ACHN renal): > 100 µM
- GI50 (CAKI-1 renal): 47.5 µM
- TGI (CAKI-1 renal): > 100 µM
- GI50 (CCRF-CEM leukemia): 27.7 µM
- TGI (CCRF-CEM leukemia): > 100 µM
- GI50 (COLO 205 colon): 21.5 µM
- TGI (COLO 205 colon): 47.4 µM
- GI50 (DLD-1 colon): 36.5 µM
- TGI (DLD-1 colon): > 100 µM
- GI50 (DMS 114 small cell lung): 21.6 µM
- TGI (DMS 114 small cell lung): 67.5 µM
- GI50 (DMS 273 small cell lung): 25.3 µM
- TGI (DMS 273 small cell lung): 80.7 µM
- GI50 (EKVX NSCLC): 34.6 µM
- TGI (EKVX NSCLC): 87.9 µM
- GI50 (HCC-2998 colon): 53.1 µM
- TGI (HCC-2998 colon): > 100 µM
- GI50 (HCT-116 colon): 30.2 µM
- TGI (HCT-116 colon): > 100 µM
- GI50 (HCT-15 colon): 48.1 µM
- TGI (HCT-15 colon): > 100 µM
- GI50 (HL-60(TB) leukemia): 24.7 µM
- TGI (HL-60(TB) leukemia): 74.1 µM
- GI50 (HOP-18 NSCLC): > 100 µM
- TGI (HOP-18 NSCLC): > 100 µM
- GI50 (HOP-62 NSCLC): 71.5 µM
- TGI (HOP-62 NSCLC): > 100 µM
- GI50 (HT29 colon): 31.5 µM
- TGI (HT29 colon): > 100 µM
- GI50 (IGROV1 ovarian): 93 µM
- TGI (IGROV1 ovarian): > 100 µM
- GI50 (K-562 leukemia): 29 µM
- TGI (K-562 leukemia): > 100 µM
- GI50 (KM12 colon): 47.5 µM
- TGI (KM12 colon): > 100 µM
- GI50 (KM20L2 colon): > 100 µM
- TGI (KM20L2 colon): > 100 µM
- GI50 (LOX IMVI melanoma): 30.1 µM
- TGI (LOX IMVI melanoma): > 100 µM
- GI50 (LXFL 529 NSCLC): 24.7 µM
- TGI (LXFL 529 NSCLC): > 100 µM
- GI50 (M14 melanoma): 45.4 µM
- TGI (M14 melanoma): > 100 µM
- GI50 (M19-MEL melanoma): 44.5 µM
- TGI (M19-MEL melanoma): > 100 µM
- GI50 (MALME-3M melanoma): 38.3 µM
- TGI (MALME-3M melanoma): > 100 µM
- GI50 (MOLT-4 leukemia): 27.5 µM
- TGI (MOLT-4 leukemia): > 100 µM
- GI50 (NCI-H226 lung): > 100 µM
- TGI (NCI-H226 lung): > 100 µM
- GI50 (NCI-H23 lung): 27.6 µM
- TGI (NCI-H23 lung): 91.8 µM
- GI50 (NCI-H460 lung): 26.7 µM
- TGI (NCI-H460 lung): 87.7 µM
- GI50 (NCI-H522 lung): 13.6 µM
- TGI (NCI-H522 lung): 28.3 µM
- GI50 (OVCAR-3 ovarian): 55.8 µM
- TGI (OVCAR-3 ovarian): > 100 µM
- GI50 (OVCAR-4 ovarian): 38.8 µM
- TGI (OVCAR-4 ovarian): > 100 µM
- GI50 (OVCAR-5 ovarian): > 100 µM
- TGI (OVCAR-5 ovarian): > 100 µM
- GI50 (OVCAR-8 ovarian): 39.7 µM
- TGI (OVCAR-8 ovarian): > 100 µM
- GI50 (RPMI-8226 leukemia): 31.3 µM
- TGI (RPMI-8226 leukemia): > 100 µM
- GI50 (RXF-631 renal): 33 µM
- TGI (RXF-631 renal): > 100 µM
- GI50 (SF-268 CNS): 36.2 µM
- TGI (SF-268 CNS): > 100 µM
- GI50 (SF-295 CNS): 69.9 µM
- TGI (SF-295 CNS): > 100 µM
- GI50 (SF-539 CNS): 34.5 µM
- TGI (SF-539 CNS): > 100 µM
- GI50 (SK-MEL-2 melanoma): 27.6 µM
- TGI (SK-MEL-2 melanoma): 70.7 µM
- GI50 (SK-MEL-28 melanoma): 53 µM
- TGI (SK-MEL-28 melanoma): > 100 µM
- GI50 (SK-MEL-5 melanoma): 23.4 µM
- TGI (SK-MEL-5 melanoma): 72.3 µM
- GI50 (SK-OV-3 ovarian): > 100 µM
- TGI (SK-OV-3 ovarian): > 100 µM
- GI50 (SN12C renal): 67 µM
- TGI (SN12C renal): > 100 µM
- GI50 (SNB-19 CNS): 64.6 µM
- TGI (SNB-19 CNS): > 100 µM
- GI50 (SNB-75 CNS): 15.8 µM
- TGI (SNB-75 CNS): 69.1 µM
- GI50 (SNB-78 CNS): 41.6 µM
- TGI (SNB-78 CNS): > 100 µM
- GI50 (SW-620 colon): 39.5 µM
- TGI (SW-620 colon): > 100 µM
- GI50 (TK-10 renal): 50.8 µM
- TGI (TK-10 renal): > 100 µM
- GI50 (UACC-257 melanoma): 30.2 µM
- TGI (UACC-257 melanoma): > 100 µM
- GI50 (UACC-62 melanoma): 45.9 µM
- TGI (UACC-62 melanoma): > 100 µM
- GI50 (UO-31 renal): 41.6 µM
- TGI (UO-31 renal): > 100 µM
- GI50 (XF 498 CNS): 44.9 µM
- TGI (XF 498 CNS): > 100 µM

Compound: Cc1ccc(S(=O)(=O)n2cc(/C=C/C#N)c(/C=C/C#N)c2)cc1
- TGI (786-0 renal): > 100 µM
- TGI (A498 renal): > 100 µM
- TGI (A549 NSCLC): > 100 µM
- TGI (ACHN renal): > 100 µM
- TGI (CCRF-CEM leukemia): > 100 µM
- TGI (COLO 205 colon): > 100 µM
- TGI (DMS 114 small cell lung): > 100 µM
- TGI (DMS 273 small cell lung): > 100 µM
- TGI (EKVX NSCLC): > 100 µM
- TGI (HCT-15 colon): > 100 µM
- TGI (HL-60(TB) leukemia): > 100 µM
- TGI (HOP-18 NSCLC): > 100 µM
- TGI (HOP-62 NSCLC): > 100 µM
- TGI (HOP-92 NSCLC): 86.7 µM
- TGI (HT29 colon): > 100 µM
- TGI (IGROV1 ovarian): > 100 µM
- TGI (K-562 leukemia): > 100 µM
- TGI (KM12 colon): > 100 µM
- TGI (KM20L2 colon): > 100 µM
- TGI (LOX IMVI melanoma): > 100 µM
- TGI (LXFL 529 NSCLC): > 100 µM
- TGI (M14 melanoma): > 100 µM
- TGI (M19-MEL melanoma): > 100 µM
- TGI (MALME-3M melanoma): > 100 µM
- TGI (MOLT-4 leukemia): > 100 µM
- TGI (NCI-H23 lung): > 100 µM
- TGI (NCI-H460 lung): > 100 µM
- TGI (OVCAR-3 ovarian): > 100 µM
- TGI (OVCAR-4 ovarian): > 100 µM
- TGI (OVCAR-5 ovarian): > 100 µM
- TGI (OVCAR-8 ovarian): > 100 µM
- TGI (RPMI-8226 leukemia): > 100 µM
- TGI (RXF 393 renal): > 100 µM
- TGI (RXF-631 renal): > 100 µM
- TGI (SF-268 CNS): > 100 µM
- TGI (SF-295 CNS): > 100 µM
- TGI (SF-539 CNS): > 100 µM
- TGI (SK-MEL-2 melanoma): > 100 µM
- TGI (SK-MEL-28 melanoma): > 100 µM
- TGI (SK-MEL-5 melanoma): > 100 µM
- TGI (SK-OV-3 ovarian): > 100 µM
- TGI (SN12C renal): > 100 µM
- TGI (SNB-19 CNS): > 100 µM
- TGI (SNB-75 CNS): > 100 µM
- TGI (SW-620 colon): > 100 µM
- TGI (TK-10 renal): > 100 µM
- TGI (U251 CNS): > 100 µM
- TGI (UACC-257 melanoma): > 100 µM
- TGI (UACC-62 melanoma): > 100 µM
- TGI (UO-31 renal): > 100 µM
- TGI (XF 498 CNS): > 100 µM
